Data on 3 compounds can be found in patent publication US5447716A, “Process for lightening the skin or treating pigmental blemishes using a composition containing benzomorpholine or 3,4-dihydro-2H-1,4-benzoxazine derivatives” (L'Oreal, priority 1993, dated 1995).

Structures are written as SMILES.

One data set concerns fungal tyrosinase. Briefly: in vitro inhibition test of the activity of tyrosinase (dopachrome formation at 475 nm). In kind it is biochemical. The note with it: inhibitor at 50 mol % with respect to tyrosine; L-dopa co-substrate; pH 6.5, 25° C.; lowering in maximum dopachrome (OD 475 nm at plateau) vs no inhibitor. An excerpt:
Some of the compounds of general formula (I) have been studied in comparison with an equivalent molar amount of hydroquinone in the in vitro inhibition test of the activity of tyrosinase.
According to this test, the amount of dopachrome formed during the chain of reactions of conversion of tyrosine to melanins is monitored by visible spectrometry at 475 nm. These reactions are catalyzed in vitro by fungal tyrosinase, in the presence of a reducing co-substrate (for example, a small amount of L-dopa) in order to initiate the hydroxylation reaction of L-tyrosine to L-dopa, which is then catalytically oxidized to dopaquinone and then to dopachrome, an intermediate product before the non-enzymatic oxidation reactions which result in the formation of melanins.
The concentration of dopachrome formed with time in the presence and in the absence of the inhibitor is thus measured.
The inhibitor concentrations are set at 50 mol % with respect to the concentration of tyrosine in the reaction medium.
The inhibition effect is expressed by the lowering in the maximum amount of dopachrome formed (optical density value at 475 nm read at the plateau of the curve) with respect to the amount obtained in the absence of inhibitor.
A--0.1M Phosphate buffer, pH=6.5 (1% Tween 20)
B--2·10^-3 M Mother solution of L-tyrosine in A
C--10^-4 M Mother solution of L-dopa in A
D--Mother solution of fungal tyrosinase in A containing 2,400 units/ml
E--10^-2 M Mother solution of the inhibitor in A (Solutions C and D are to be prepared on the day)
reference cell: 3 ml of A
homogenize and equilibrate at 25° C.
mix rapidly and observe the kinetics by measuring the absorbance at 475 nm as a function of time.

For data set [1] the following is noted: in words, background; cited from earlier work.
The subject of the next data set is melanocytes. To be noted: in words, background; cited from earlier work.

In the case of `Oc1ccc2c(c1)NCCO2`, in the data set with fungal tyrosinase, the “% of inhibition” value is -80%. With `Oc1ccc2c(c1)OCCN2`, the “% of inhibition” value in the data set on fungal tyrosinase is listed as -71%.

With `Oc1ccc(O)cc1` [hydroquinone], the irritation result in data set [1] is on record as “particularly irritating”. Further, in the data set on fungal tyrosinase, the “% of inhibition” value is reported as -33%. The cytotoxicity for melanocytes result in the data set with melanocytes is reported as “cytotoxic”.
